Source: patent US5801174A, “Fused indole and quinoxaline derivatives, their preparation and use” (Neurosearch A/S, priority 1994, dated 1998)

Tests used:
[1] = target: AMPA receptor; test: AMPA receptor binding affinity (in vitro); conditions: Table 1
Text: In Vitro activity (receptor affinity):
(§1) The test results obtained by testing the compounds of the invention for their in-vitro AMPA receptor affinity and their ability to inhibit GABA release are presented in the following table: […]

[2] = test system: cultured cerebral cortex neurons; test: 3H-GABA release, cultured cerebral cortex neurons; type: cell-based; conditions: Cerebral cortex neuron; inhibition of stimulated 3H-GABA release, mouse cortical neurons, Table 1
Text: The compounds of the invention have also been tested for their ability to inhibit GABA release from cultured cerebral cortex neurons in the following test:
^3 H-GABA Release, Cortical Neurons
Background: Neurons which express receptors for excitatory amino acids can be depolarized by such compounds and this depolarization will ultimately lead to a release of transmitter substance from the neurons. Cultured neurons obtained from 15-day-old mouse embryo cortex are mainly GABAergic and express all types of excitatory amino acid receptors. This means that they can be stimulated by high potassium or by the excitatory amino acids, NMDA, AMPA and kainate to release their neurotransmitter GABA.
^3 H-GABA may be used to label the GABA transmitter pool in the neurons and the release of ^3 H-GABA from the neurons may be used as a simple functional model for studies of the effects of excitatory amino acids and their antagonists.
Method: Cerebral cortices of 16-day-old mouse embryos are chopped in 0.4×0.4 mm cubes. The tissue is dissociated by mild trypsinization (0.1% (wt/vol) trypsin, 37° C., 15 min) and subsequently inoculated into poly-L-lysine-coated 3-cm Petri dishes containing a slightly modified DMEM (24.5 mM KCI, 30 mM glucose) supplemented with p-aminobenzoate (7 μM), insulin (100 mU/L) and 10% (vol/vol) horse serum. Cells are maintained in culture for 5-7 days with the addition of the antimitotic agent cytosine arbinoside (40 μM) from day 2 in vitro to prevent glial profileration. For further details and references, see Drejer et al. Exp. Brain Res. 47, 259 (1982).
Release experiments are performed using the model described by Drejer et al. Life Sci. 38, 2077 (1986). Cerebral cortex neurons cultured in Petri dishes (30 mm) are added 100 μM γ-vinyl-GABA one hour before the experiment in order to inhibit degradation of GABA in the neurons. 30 min before the experiment 5 μCi ^3 H-GABA is added to each culture and after this preloading period the cell monolayer at the bottom of the dish is covered with a piece of nylon mesh to protect the cells against mechanical damage and to facilitate dispersion of medium over the cell layer. The preloading medium is removed and the Petri dishes are placed in a superfusion system consisting of a peristaltic pump continously delivering thermostated 37° C. superfusion medium HEPES buffered saline (HBS): 10 mM HEPES, 135 mM NaCl, 5 mM KCI, 0.6 mM MgSO4, 1.0 mM CaCl2 and 6 mM D-glucose; pH 7.4) from a reservoir to the top of the slightly tilted Petri dish. The medium is continously collected from the lower part of the dish and delivered to a fraction collector. Initially, the cells are superfused with HBS for 15 min (flow rate 2 ml/min). Then the cells are stimulated for 30 sec every 4 min by changing the superfusion medium from HBS to a corresponding medium containing […].
Test subtances are dissolved in 50% DMSO, 48% ethanol. The final DMSO and ethanol concentration in the assay must not exceed 0.1%.
The stimulated release of ^3 H-GABA (cpm) are corrected for the mean basal release(cpm) before and after stimulation.
The stimulated release in the presence of antagonists are expressed relative to the stimulated release and the IC50 value for the antagonist is calculated (the concentration (μM) of the test substance which inhibit 50% of the stimulated ^3 H-GABA release).
as §1

Work on `CCN1Cc2c(-c3ccc(S(=O)(=O)N(C)C)cc3)cc3c(c2C1)NC(=O)C3=NO` [7-ethyl-5-(4-(N,N-dimethylsulphamoyl)phenyl)-1,6,7,8-tetrahydrobenzo[1,2-b:3,4-c]dipyrrole-2,3-dione-3-oxime] yielded an IC50 [1] of 1600 nM and an IC50 [2] of 4500 nM.
Compound `CCN1Cc2c(-c3ccc(S(=O)(=O)N4CCOCC4)cc3)cc3c(c2C1)NC(=O)C3=NO` [7-ethyl-5-(4-(morpholinosulfonyl)phenyl)-1,6,7,8-tetrahydrobenzo[1,2-b:3,4-c]dipyrrole-2,3-dione-3-oxime] has an IC50 [1] of 140 nM and an IC50 [2] of 500 nM.
`CON=C1C(=O)Nc2c1cc(-c1ccc(S(=O)(=O)N3CCOCC3)cc1)c1c2CCN(C)C1` [7-methyl-5-(4-(morpholinosulfonyl)phenyl)-6,7,8,9-tetrahydro-1H-pyrrolo[2,3-f]isoquinoline-2,3-dione-3-O-methyloxime] was tested, and the IC50 [1] was 220 nM and the IC50 [2] was 1600 nM.
For `CN1CCc2c(c(-c3ccc(S(=O)(=O)N4CCOCC4)cc3)cc3c2NC(=O)C3=NO)C1` [7-methyl-5-(4-(morpholinosulfonyl)phenyl)-6,7,8,9-tetrahydro-1H-pyrrolo[2,3-f]isoquinoline-2,3-dione-3-oxime], the IC50 [1] was 110 nM and the IC50 [2] was 250 nM.
In the case of `CN1CCc2c(-c3ccc(S(=O)(=O)N4CCN(CCO)CC4)cc3)cc3c(c2C1)NC(=O)C3=NO` [8-methyl-5-(4-(4-(2-hydroxyethyl)piperazinosulfonyl)-phenyl)-6,7,8,9-tetrahydro-1H-pyrrolo[3,2-h]-isoquinoline-2,3-dione-3-oxime], the IC50 [1] is reported as 19 nM and the IC50 [2] is reported as 100 nM.
In the case of `CN1CCc2c(-c3ccc(S(=O)(=O)N4CCN(Cc5ccc6c(c5)OCO6)CC4)cc3)cc3c(c2C1)NC(=O)C3=NO` [8-methyl-5-(4-(4-(3,4-methylenedioxybenzyl)-piperazinosulfonyl)phenyl)-6,7,8,9-tetrahydro-1H-pyrrolo[3,2-h]-isoquinoline-2,3-dione-3-oxime], the IC50 [1] is reported as 130 nM and the IC50 [2] is reported as 500 nM.
`CN1CCc2c(-c3ccc(S(=O)(=O)N4CCN(c5ccc(Cl)cc5)CC4)cc3)cc3c(c2C1)NC(=O)C3=NO` [8-methyl-5-(4-(4-(4-chlorophenyl)piperazinosulfonyl)-phenyl)-6,7,8,9-tetrahydro-1H-pyrrolo[3,2-h]-isoquinoline-2,3-dione-3-oxime] was tested, and the IC50 [1] was 68 nM and the IC50 [2] was 877 nM.
In the case of `CN1CCc2c(-c3ccc(S(=O)(=O)N(CCO)CCO)cc3)cc3c(c2C1)NC(=O)C3=NO` [8-methyl-5-(4-(N,N-bis(2-hydroxyethyl)sulphamoyl)-phenyl)-6,7,8,9-tetrahydro-1H-pyrrolo[3,2-h]-isoquinoline-2,3-dione-3-oxime], the IC50 [1] is reported as 50 nM and the IC50 [2] is reported as 130 nM.
`CCN(CC)CCN(CCN(CC)CC)S(=O)(=O)c1ccc(-c2cc3c(c4c2CCN(C)C4)NC(=O)C3=NO)cc1` [8-methyl-5-(4-(N,N-di(2-(N,N-diethylamino)ethyl)-sulphamoyl)-phenyl)-6,7,8,9-tetrahydro-1H-pyrrolo[3,2-h]-isoquinoline-2,3-dione-3-oxime] showed an IC50 [1] of 38 nM and an IC50 [2] of 450 nM.
For `CN1CCc2c(-c3ccc(S(=O)(=O)N(Cc4ccccc4)Cc4ccccc4)cc3)cc3c(c2C1)NC(=O)C3=NO` [8-methyl-5-(4-(N,N-dibenzylsulphamoyl)-phenyl)-6,7,8,9-tetrahydro-1H-pyrrolo[3,2-h]-isoquinoline-2,3-dione-3-oxime], the IC50 [1] was 540 nM and the IC50 [2] was 1900 nM.
Compound `CCN(CC)S(=O)(=O)c1ccc(-c2cc3c(c4c2CCN(C)C4)NC(=O)C3=NO)cc1` [8-methyl-5-(4-(N,N-diethylsulphamoyl)-phenyl)-6,7,8,9-tetrahydro-1H-pyrrolo[3,2-h]-isoquinoline-2,3-dione-3-oxime] has an IC50 [1] of 18 nM and an IC50 [2] of 160 nM.
Compound `CN1CCc2c(-c3ccc(C(=O)N(C)C)cc3)cc3c(c2C1)NC(=O)C3=NO` [8-methyl-5-(4-(N,N-dimethylcarbamoyl)-phenyl)-6,7,8,9-tetrahydro-1H-pyrrolo[3,2-h]-isoquinoline-2,3-dione-3-oxime] has an IC50 [1] of 140 nM and an IC50 [2] of 190 nM.
`CON=C1C(=O)Nc2c1cc(-c1ccc(S(=O)(=O)N(C)C)cc1)c1c2CN(C)CC1` [8-methyl-5-(4-(N,N-dimethylsulphamoyl)-phenyl)-6,7,8,9-tetrahydro-1H-pyrrolo[3,2-h]-isoquinoline-2,3-dione-3-O-methyloxime] showed an IC50 [1] of 200 nM and an IC50 [2] of 1700 nM.
`CN1CCc2c(-c3ccc(S(=O)(=O)N(C)C)cc3)cc3c(c2C1)NC(=O)C3=NOC(C)(C)C` [8-methyl-5-(4-(N,N-dimethylsulphamoyl)-phenyl)-6,7,8,9-tetrahydro-1H-pyrrolo[3,2-h]-isoquinoline-2,3-dione-3-O-t-butyloxime] gave an IC50 [1] of 470 nM and an IC50 [2] of 5500 nM.
Compound `CN1CCc2c(-c3ccc(S(=O)(=O)NCCO)cc3)cc3c(c2C1)NC(=O)C3=NO` [8-methyl-5-(4-(N-(2-hydroxyethyl)sulphamoyl)-phenyl)-6,7,8,9-tetrahydro-1H-pyrrolo[3,2-h]-isoquinoline-2,3-dione-3-oxime] has an IC50 [1] of 40 nM and an IC50 [2] of 330 nM.
`CCOC(=O)CNS(=O)(=O)c1ccc(-c2cc3c(c4c2CCN(C)C4)NC(=O)C3=NO)cc1` [8-methyl-5-(4-(N-(ethoxycarbonylmethyl)-sulphamoyl)phenyl)-6,7,8,9-tetrahydro-1H-pyrrolo[3,2-h]isoquinoline-2,3-dione-3-oxime] gave an IC50 [1] of 34 nM and an IC50 [2] of 340 nM.
With `CN(C)CCN(C)S(=O)(=O)c1ccc(-c2cc3c(c4c2CCN(C)C4)NC(=O)C3=NO)cc1` [8-methyl-5-(4-(N-methyl-N-(2-(N,N-dimethylamino)-ethyl)sulphamoyl)-phenyl)-6,7,8,9-tetrahydro-1H-pyrrolo[3,2-h]-isoquinoline-2,3-dione-3-oxime] the IC50 [1] was 190 nM and the IC50 [2] was 310 nM.
`CN1CCc2c(-c3ccc(S(=O)(=O)Nc4ccccc4)cc3)cc3c(c2C1)NC(=O)C3=NO` [8-methyl-5-(4-(N-phenylsulphamoyl)-phenyl)-6,7,8,9-tetrahydro-1H-pyrrolo[3,2-h]-isoquinoline-2,3-dione-3-oxime] was tested, and the IC50 [1] was 66 nM and the IC50 [2] was 380 nM.
Work on `CN1CCc2c(-c3ccc(S(=O)(=O)NC(C)(C)C)cc3)cc3c(c2C1)NC(=O)C3=NO` [8-methyl-5-(4-(N-t-butylsulphamoyl)-phenyl)-6,7,8,9-tetrahydro-1H-pyrrolo[3,2-h]-isoquinoline-2,3-dione-3-oxime] yielded an IC50 [1] of 30 nM and an IC50 [2] of 240 nM.
With `CCOC(=O)c1ccc(-c2cc3c(c4c2CCN(C)C4)NC(=O)C3=NO)cc1` [8-methyl-5-(4-(ethoxycarbonyl)phenyl)-6,7,8,9 tetrahydro-1H-pyrrolo[3,2-h]-isoquinoline-2,3-dione-3-oxime] the IC50 [1] was 100 nM and the IC50 [2] was 3700 nM.
`CN1CCc2c(-c3ccc(S(=O)(=O)N4CCOCC4)cc3)cc3c(c2C1)NC(=O)C3=O` [8-methyl-5-(4-(morpholinosulfonyl)-phenyl)-6,7,8,9-tetrahydro-1H-pyrrolo[3,2-h]-isoquinoline-2,3-dione] was tested, and the IC50 [1] was 820 nM and the IC50 [2] was 2160 nM.
For `CN1CCc2c(-c3ccc(S(=O)(=O)N4CCOCC4)cc3)cc3c(c2C1)NC(=O)C3=NO` [8-methyl-5-(4-(morpholinosulfonyl)phenyl)-6,7,8,9-tetrahydro-1H-pyrrolo[3,2-h]-isoquinoline-2,3-dione-3-oxime], the IC50 [1] was 40 nM and the IC50 [2] was 30 nM.
`CN1CCc2c(-c3ccc(S(=O)(=O)N4CCCCC4)cc3)cc3c(c2C1)NC(=O)C3=NO` [8-methyl-5-(4-(piperidinosulfonyl)-phenyl)-6,7,8,9-tetrahydro-1H-pyrrolo[3,2-h]-isoquinoline-2,3-dione-3-oxime] gave an IC50 [1] of 27 nM and an IC50 [2] of 240 nM.
Compound `CN1CCc2c(-c3ccc(S(N)(=O)=O)cc3)cc3c(c2C1)NC(=O)C3=NO` [8-methyl-5-(4-(sulphamoyl)phenyl)-6,7,8,9-tetrahydro-1H-pyrrolo[3,2-h]isoquinoline-2,3-dione-3-oxime] has an IC50 [1] of 25 nM and an IC50 [2] of 270 nM.
